Results: paper PMC5537602, “TRPA1 channel mediates organophosphate-induced delayed neuropathy” (Cell Discovery, 2017)

Tests used:
Format in all cases: cell-based
TRPC5 = target: T1, TRPC5 (Homo sapiens, UniProt Q9UL62); experiment: Calcium fluorescence signal, HEK293 cells overexpressing TRPC5; details: 10 μM
T1 construct: expressed in transfected cells; host or cells: HEK293
T1 sequence (Q9UL62 1-973): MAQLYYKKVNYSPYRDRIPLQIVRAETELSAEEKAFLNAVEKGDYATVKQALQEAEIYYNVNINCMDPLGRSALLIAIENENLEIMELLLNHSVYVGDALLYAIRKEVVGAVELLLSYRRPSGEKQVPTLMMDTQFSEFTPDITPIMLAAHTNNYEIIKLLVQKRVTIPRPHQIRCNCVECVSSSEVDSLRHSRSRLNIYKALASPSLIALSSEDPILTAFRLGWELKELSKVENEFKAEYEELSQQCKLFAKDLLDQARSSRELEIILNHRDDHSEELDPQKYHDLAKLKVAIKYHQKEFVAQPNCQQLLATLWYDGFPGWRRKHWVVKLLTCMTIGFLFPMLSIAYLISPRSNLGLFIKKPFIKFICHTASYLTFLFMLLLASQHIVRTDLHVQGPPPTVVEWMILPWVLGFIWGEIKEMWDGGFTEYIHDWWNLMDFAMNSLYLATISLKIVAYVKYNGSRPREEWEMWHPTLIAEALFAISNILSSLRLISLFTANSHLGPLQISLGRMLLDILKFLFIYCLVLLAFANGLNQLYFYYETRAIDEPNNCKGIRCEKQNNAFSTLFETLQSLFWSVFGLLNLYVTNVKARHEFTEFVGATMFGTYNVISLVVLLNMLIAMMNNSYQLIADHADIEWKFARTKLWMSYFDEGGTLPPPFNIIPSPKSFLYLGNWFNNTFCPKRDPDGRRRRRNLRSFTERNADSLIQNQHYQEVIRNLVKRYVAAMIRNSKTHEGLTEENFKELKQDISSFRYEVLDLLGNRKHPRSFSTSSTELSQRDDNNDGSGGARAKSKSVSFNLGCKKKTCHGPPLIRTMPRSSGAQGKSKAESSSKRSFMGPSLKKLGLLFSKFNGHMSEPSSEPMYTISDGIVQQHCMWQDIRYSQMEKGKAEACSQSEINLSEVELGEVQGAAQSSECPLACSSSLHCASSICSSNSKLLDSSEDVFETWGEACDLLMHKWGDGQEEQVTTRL
Description: (§1) Figure S3. Specificity of malathion for TRPA1 channels. (A-F) Time course of the fluorescence signal induced by malathion (Mala, 10 μM) and the indicated positive agonists (10 μM) in HEK293 cells overexpressing TRPV1 (A), TRPV3 (B), TRPV4 (C), TRPM8 (D), TRPC4 (E) and TRPC5 (F) channels. The fluorescence signals are scaled as F/F0. EC indicates external solution. […]
(§2) cells for each tested TRP channel. All bars are presented as the mean ± SEM. […]

mTRPA1 = mTRPA1 (Mus musculus, UniProt Q8BLA8); experiment: FDSS Ca2+-influx assay, HEK293 cells stably expressing mTRPA1; parameters: expressed in transfected cells; details: HEK293 cells, change in [Ca2+]i; read-out: EC50, activation of mTRPA1
Sequence of mTRPA1 (Q8BLA8 whole entry): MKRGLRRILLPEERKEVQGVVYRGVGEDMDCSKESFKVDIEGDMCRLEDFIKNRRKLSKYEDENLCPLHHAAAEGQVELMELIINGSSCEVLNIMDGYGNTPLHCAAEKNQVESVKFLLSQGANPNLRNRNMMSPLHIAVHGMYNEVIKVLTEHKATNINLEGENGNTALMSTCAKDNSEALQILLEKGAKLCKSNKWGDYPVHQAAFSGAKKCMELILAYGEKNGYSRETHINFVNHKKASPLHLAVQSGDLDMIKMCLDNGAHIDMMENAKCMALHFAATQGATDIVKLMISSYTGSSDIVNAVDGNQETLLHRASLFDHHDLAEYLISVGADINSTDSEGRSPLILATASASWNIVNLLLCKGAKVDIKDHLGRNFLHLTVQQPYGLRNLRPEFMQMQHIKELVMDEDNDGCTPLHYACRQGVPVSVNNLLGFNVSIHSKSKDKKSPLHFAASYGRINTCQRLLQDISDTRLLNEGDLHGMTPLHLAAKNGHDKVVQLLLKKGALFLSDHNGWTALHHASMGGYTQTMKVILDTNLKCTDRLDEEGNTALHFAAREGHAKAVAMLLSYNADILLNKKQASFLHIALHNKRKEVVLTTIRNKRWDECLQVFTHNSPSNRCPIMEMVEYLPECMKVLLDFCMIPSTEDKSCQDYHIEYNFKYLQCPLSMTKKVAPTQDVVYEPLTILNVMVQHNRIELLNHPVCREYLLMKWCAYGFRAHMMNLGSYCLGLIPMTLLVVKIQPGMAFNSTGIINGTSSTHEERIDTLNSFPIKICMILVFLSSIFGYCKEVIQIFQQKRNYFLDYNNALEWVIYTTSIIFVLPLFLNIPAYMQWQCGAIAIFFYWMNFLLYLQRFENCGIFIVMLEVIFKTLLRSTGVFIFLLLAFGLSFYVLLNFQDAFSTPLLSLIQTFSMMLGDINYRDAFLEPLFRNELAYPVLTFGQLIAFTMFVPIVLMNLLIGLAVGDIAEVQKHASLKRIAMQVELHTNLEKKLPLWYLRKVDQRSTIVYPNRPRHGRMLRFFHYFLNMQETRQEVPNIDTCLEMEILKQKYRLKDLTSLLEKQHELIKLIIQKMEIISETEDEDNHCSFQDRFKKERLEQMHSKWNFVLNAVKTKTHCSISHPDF
Description: Ca^2+-influx assays were carried out using HEK293 cells stably expressing mTRPA1 channels with an FDSS screening system (Hamamatsu, Japan). Before the start of the assay, HEK293-mTRPA1 cells were plated onto poly-D-Lysine (40 μg ml^−1) coated 96-well black clear bottom plate with the cell density of 300 000 cells per milliliter in DMEM supplemented with 10% (vol/vol) fetal bovine serum, 200 μg ml^−1 Hygromycin B, 15 μg ml^−1 Blasticidin S HCL and 0.3 μg ml^−1 doxycycline, which could induce the expression of mTRPA1. The 96-well plate was then put in sterile incubator overnight. The following day, Ca^2+ influx dye Fluo-4/AM stock was diluted to 2 μM with bath solution, and added (50 μl per well) in place of the culture medium. The plate was then incubated to load the Fluo-4/AM into cells for 60 min at 37 °C in dark environment. During the incubation, we prepared the compound plate (96-well) and the margin of plate was set as blank control due to the fringing effect. At the end of dye loading period, the remnant dye was removed using bath solution to wash the 96-well cell plate twice and then add 80 μl bath solution per well.

TRPV4 = target: T2, TRPV4 (Homo sapiens, UniProt Q9HBA0); experiment: Calcium fluorescence signal, HEK293 cells overexpressing TRPV4; details: 10 μM
T2 construct: expressed in transfected cells; host or cells: HEK293
T2 sequence (Q9HBA0 whole entry, species assumed): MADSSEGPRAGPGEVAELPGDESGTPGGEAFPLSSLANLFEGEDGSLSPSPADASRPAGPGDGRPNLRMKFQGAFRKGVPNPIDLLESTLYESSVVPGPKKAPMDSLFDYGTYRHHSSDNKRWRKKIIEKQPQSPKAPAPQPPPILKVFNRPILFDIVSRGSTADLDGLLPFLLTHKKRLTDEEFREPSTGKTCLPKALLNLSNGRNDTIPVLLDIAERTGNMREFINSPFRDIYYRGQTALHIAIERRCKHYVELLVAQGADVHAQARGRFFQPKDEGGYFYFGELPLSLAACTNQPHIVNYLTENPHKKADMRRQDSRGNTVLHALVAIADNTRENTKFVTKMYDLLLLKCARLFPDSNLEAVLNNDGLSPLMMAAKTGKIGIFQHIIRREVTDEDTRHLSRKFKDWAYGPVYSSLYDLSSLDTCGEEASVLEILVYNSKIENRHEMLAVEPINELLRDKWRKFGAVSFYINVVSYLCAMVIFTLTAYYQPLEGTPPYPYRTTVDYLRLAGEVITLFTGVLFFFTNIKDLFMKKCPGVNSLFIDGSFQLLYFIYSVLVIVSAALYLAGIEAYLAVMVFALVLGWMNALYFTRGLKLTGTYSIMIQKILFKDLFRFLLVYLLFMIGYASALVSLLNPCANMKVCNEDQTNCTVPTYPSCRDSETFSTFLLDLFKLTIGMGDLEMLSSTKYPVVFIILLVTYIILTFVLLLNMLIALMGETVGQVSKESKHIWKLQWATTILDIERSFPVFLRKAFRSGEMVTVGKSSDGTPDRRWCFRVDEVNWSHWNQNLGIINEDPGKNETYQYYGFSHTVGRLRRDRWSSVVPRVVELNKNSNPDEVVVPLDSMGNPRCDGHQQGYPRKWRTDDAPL
Description: as §1, §2

mouse DRG neurons = experiment: Single-cell calcium imaging (Fura-2/AM) of isolated DRG neurons
Description: DRG neurons were isolated from young C57 BL/6 mice (4–5 weeks). The sections of thoracic and lumbar DRG neurons were rapidly isolated in calcium and magnesium-free PBS with low temperature conditions (ice-bath environment). The isolated tissues were cut into pieces with scissor and incubated for 30 min with 0.1% collagenase and 0.025% trypsin which were diluted by DMEM-F12 at 37 °C. After digestion, neurons were gently dissociated using Pasteur pipettes and then plated onto poly-D-lysine pre-coated glass cover slips. DRG neurons were cultured for 24 h before use.
Calcium influx signals were monitored using the ratio metric fluorescent indicator dye Fura-2/AM at room temperature (23–25 °C). Cells were incubated with 2 μM Fura-2/AM, which was generated by diluting the stock solution with normal external solution, for 30 min at 37 °C. […] The maximum excitation wave length of Fura-2/AM was changed to 340 nm from 380 nm when combined with calcium ions. Fura-2/AM was excited at 340 and 380 nm with a rapid switching monochromator obtained from TILL Photonics, and the mean fluorescence intensity ratios (F340/F380) reflected real-time changes in the concentration of intracellular free calcium ions. The external solution used in the DRG whole-cell patch-clamp recordings was also used for calcium imaging. Solutions were switched using a gravity-fed continuous focal perfusion system.

TRPM8 = target: T3, TRPM8 (Homo sapiens, UniProt Q7Z2W7); experiment: Calcium fluorescence signal, HEK293 cells overexpressing TRPM8; details: 10 μM
T3 construct: expressed in transfected cells; host or cells: HEK293
T3 sequence (Q7Z2W7 whole entry, species assumed): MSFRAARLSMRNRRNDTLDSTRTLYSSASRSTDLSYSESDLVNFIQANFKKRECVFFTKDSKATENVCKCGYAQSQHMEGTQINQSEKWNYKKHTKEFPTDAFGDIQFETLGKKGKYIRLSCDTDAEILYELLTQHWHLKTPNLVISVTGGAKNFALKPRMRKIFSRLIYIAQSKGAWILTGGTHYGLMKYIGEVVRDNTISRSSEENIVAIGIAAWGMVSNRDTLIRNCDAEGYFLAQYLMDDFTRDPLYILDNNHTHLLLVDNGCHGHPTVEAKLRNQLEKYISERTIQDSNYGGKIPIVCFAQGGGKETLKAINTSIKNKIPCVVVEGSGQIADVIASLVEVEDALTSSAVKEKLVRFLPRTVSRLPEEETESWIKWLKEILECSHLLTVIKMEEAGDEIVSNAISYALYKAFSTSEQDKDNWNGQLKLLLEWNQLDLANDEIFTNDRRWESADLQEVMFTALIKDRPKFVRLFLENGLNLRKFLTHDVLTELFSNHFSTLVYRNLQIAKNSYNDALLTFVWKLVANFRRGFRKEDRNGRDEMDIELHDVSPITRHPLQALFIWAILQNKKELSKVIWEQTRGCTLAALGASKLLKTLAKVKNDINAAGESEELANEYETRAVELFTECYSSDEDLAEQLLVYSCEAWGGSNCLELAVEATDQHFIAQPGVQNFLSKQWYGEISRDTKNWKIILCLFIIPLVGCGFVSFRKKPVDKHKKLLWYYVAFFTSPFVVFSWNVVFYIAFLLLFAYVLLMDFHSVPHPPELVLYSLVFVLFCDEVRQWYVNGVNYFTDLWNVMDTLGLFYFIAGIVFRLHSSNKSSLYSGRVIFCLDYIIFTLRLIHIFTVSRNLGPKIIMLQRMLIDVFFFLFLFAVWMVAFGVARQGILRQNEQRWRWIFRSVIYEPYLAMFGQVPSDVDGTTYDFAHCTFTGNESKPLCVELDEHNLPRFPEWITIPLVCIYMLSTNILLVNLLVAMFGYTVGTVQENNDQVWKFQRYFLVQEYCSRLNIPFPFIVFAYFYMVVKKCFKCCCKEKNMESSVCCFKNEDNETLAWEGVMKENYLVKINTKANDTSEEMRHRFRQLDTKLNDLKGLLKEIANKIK
Description: as §1, §2

TRPV1 = target: T4, TRPV1 (Homo sapiens, UniProt Q8NER1); experiment: Calcium fluorescence signal, HEK293 cells overexpressing TRPV1; details: 10 μM
T4 construct: expressed in transfected cells; host or cells: HEK293
T4 sequence (Q8NER1 whole entry, species assumed): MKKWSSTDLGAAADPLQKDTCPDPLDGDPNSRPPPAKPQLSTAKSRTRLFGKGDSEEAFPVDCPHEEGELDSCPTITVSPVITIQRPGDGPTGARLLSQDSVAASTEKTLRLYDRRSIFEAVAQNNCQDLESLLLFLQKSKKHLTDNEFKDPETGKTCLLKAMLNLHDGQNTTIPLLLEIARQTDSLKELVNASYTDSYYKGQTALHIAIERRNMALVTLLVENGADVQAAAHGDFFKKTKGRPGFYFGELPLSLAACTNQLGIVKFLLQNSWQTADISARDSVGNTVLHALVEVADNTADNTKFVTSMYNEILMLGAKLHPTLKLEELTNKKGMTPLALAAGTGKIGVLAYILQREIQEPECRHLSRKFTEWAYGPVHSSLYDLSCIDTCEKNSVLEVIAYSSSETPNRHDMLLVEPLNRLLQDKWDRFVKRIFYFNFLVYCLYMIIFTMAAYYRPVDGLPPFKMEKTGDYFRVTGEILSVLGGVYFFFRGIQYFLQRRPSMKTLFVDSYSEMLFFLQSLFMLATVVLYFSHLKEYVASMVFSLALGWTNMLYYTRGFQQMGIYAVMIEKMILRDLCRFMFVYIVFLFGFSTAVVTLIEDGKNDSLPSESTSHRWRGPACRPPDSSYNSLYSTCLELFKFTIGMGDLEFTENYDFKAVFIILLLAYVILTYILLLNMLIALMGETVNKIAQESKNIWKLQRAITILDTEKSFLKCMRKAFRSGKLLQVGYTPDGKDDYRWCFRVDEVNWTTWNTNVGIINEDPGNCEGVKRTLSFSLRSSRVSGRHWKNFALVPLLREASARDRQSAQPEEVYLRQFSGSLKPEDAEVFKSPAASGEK
Description: as §1, §2

CCOC(=O)CC(SP(=S)(OC)OC)C(=O)OCC (stereo not drawn) [malathion, S-[1,2-bis (ethoxycarbonyl)ethyl] O, O-dimethyl phosphorodithioate]
activation of TRPC5 (TRPC5): could not activate | EC50 (mTRPA1): 14.2 ± 1.02 µM | activation of TRPV4 (TRPV4): could not activate | [Ca2+]i response of DRG neurons from Trpa1−/− mice (mouse DRG neurons; Trpa1−/− neurons): thoroughly unresponsive | neurons displaying a robust increase in [Ca2+]i (mouse DRG neurons; wild-type small-diameter neurons, sequential application of AITC and malathion, 197/451): ~ 44% | activation of TRPM8 (TRPM8): could not activate | activation of TRPV1 (TRPV1): could not activate
